Experiment [1] deals with T1, Athe_2574 (Anaerocellum bescii, UniProt A0ABY1S640). Put plainly: DSC thermal shift of Athe_2574 with ɑ-glucan substrates. Format: binding. As to conditions: for Tm: Athe_2574 + sugar, 2.5 mg/mL protein; for Tm / ΔTm: 5 mM sugar, 50 mM HEPES, 300 mM NaCl pH 7.0; for ΔTm: |Tm,holo − Tm,apo|. An excerpt:
(§1) In DSC, proteins are heated at a constant rate to induce thermal denaturation. This can be measured by an increase in the protein’s specific heat capacity Cp(T) as a function of temperature. The melting temperature Tm is defined as the temperature at which the protein attains its maximum heat capacity and becomes fully denatured ([46]). However, the presence of their cognate ligands can induce substrate-binding proteins to adopt a more thermally stable closed conformation, resulting in an increase in Tm ([47]). This ΔTm = |Tm,holo − Tm,apo| difference can be used to determine differential substrate specificity, as preferred ligands that are more tightly bound will yield larger ΔTm values. […] However, other short ɑ-glucans trehalose (ΔTm = 7.23 °C) and maltotriose (ΔTm = 6.63 °C) also yield substantial melting temperature differences. Melting temperature differences are subtler with longer oligosaccharides maltotetraose (ΔTm = 1.57 °C), maltopentaose (ΔTm = 0.95 °C), and maltoheptaose (ΔTm = 0.26 °C) (Fig. 4a). However, as binding of maltose to E. coli MBP is known to increase protein melting temperature by approximately 8 °C, depending on pH, it is unlikely binding is taking place between Athe_2310 and longer maltodextrins (G4–G7) due to their much smaller ΔTm values in comparison ([47], [48]).
(§2) DSC measurements using a MicroCal PEAQ-DSC (Malvern Panalytical) were performed on Athe_2310 and Athe_2574 in combination with a variety of ɑ-glucans: trehalose (G2), maltose (G2), maltotriose (G3), maltotetraose (G4), maltopentaose (G5), and maltoheptaose (G7). The scan rate was set to […], with a max temperature of 130 °C. Protein was mixed with each sugar, yielding final concentrations of 2.5 mg/mL of protein and 5 mM of sugar. A total of 50 mM HEPES, 300 mM NaCl, pH 7.0, was used as the reference buffer. The heat capacity Cp was plotted against temperature and then normalized by the respective run’s maximum Cp value ( Cp,max ). We defined the melting temperature Tm as the temperature corresponding to Cp,max=Cp(T=Tm) . The melting temperature difference ΔTm=|Tm,holo-Tm,apo| is defined as the absolute difference in melting temperature between the melting temperature of a protein-sugar mix and the same protein with no sugar present.

The target of experiment [2] is T2, Athe_2310 (Anaerocellum bescii, UniProt A0ABY1S743). As to the kind of experiment: DSC thermal shift of Athe_2310 with ɑ-glucan substrates. Format: binding. As to conditions: 5 mM sugar, 50 mM HEPES, 300 mM NaCl pH 7.0; for Tm: Athe_2310 + sugar, 2.5 mg/mL protein; for ΔTm: Athe_2310, |Tm,holo − Tm,apo|.
Source text: as §1, §2
(In general: Differential scanning calorimetry records heat flow against a reference as temperature is scanned.)

Experiment [3] concerns Athe_2310_Mut1 (D69F G279F G278F). Put plainly: DSC screen of mutant Athe_2310_Mut1 with maltodextrins. Format: binding, Anaerocellum bescii. The settings on record: Fig. S5, result in words.
Source text: We constructed mutant variants Athe_2310_Mut1 (D69F G279F G278F) and Athe_2574_Mut1 (G253F V254F P61W N63F D64F M322A W332A) that each contain point substitutions on residues predicted to be critical for both hydrophobic and hydrophilic contacts. In other words, the mutation of these residues is predicted to confer energetic penalties sufficiently large to prevent substrate binding. […] Similarly, Athe_2574_Mut1, with seven-point mutations due to its greater number of subsites, can no longer recognize maltodextrin substrates of any length (Fig. S6).
as §2, with “The melting temperature difference ΔTm=|Tm,holo-Tm,apo| is defined as the absolute difference in melting temperature between the melting temperature of a protein-sugar mix and the same protein with no sugar present.” left out

Experiment [4] deals with T2, Athe_2310. As to the kind of experiment: ITC of Athe_2310 with ɑ-glucan substrates. In kind it is binding. As to conditions: Athe_2310, ITC 25 °C; for Kd: 50 mM HEPES, 300 mM NaCl pH 7.0, read-out: Kd; for Ka: Ka=1/Kd; for n (stoichiometry): single-site binding model. The procedure:
Proteins were dialyzed into the following buffer: 50 mM HEPES, 300 mM NaCl, pH 7.0 via 10 kDa MWCO PES filter 20 mL Spin-X Concentrators (Corning). […] A standard titration experiment consisted of the protein sample at 50 µM and the sugar ligand at 500 µM. The stirring was set at 750 rpm. The 280 µL sample of protein was injected with a priming aliquot of 0.2 µL of sugar ligand, followed by 19 successive injections of 2.0 µL at 120 seconds intervals. Integrated heat effects were determined by non-linear regression using a single-site binding model (Microcal PEAQ-ITC Analysis). The fitted isotherms yield the binding dissociation constant and other thermodynamic parameters calculated using the differential form of the Gibbs Free Energy equation ΔGd=-RTln(Kd) . The slope of the binding isotherm at the equivalence point was used to determine the dissociation constant Kd .

The target of experiment [5] is T1, Athe_2574. Put plainly: biochemical. In kind it is binding. The settings on record: ITC 25 °C; for Kd: 50 mM HEPES; for Ka: Ka=1/Kd; for n (stoichiometry): single-site binding model. On the procedure:
Proteins were dialyzed into the following buffer: 50 mM HEPES, 300 mM NaCl, pH 7.0 via 10 kDa MWCO PES filter 20 mL Spin-X Concentrators (Corning). Measurements were performed at 25 °C using a MicroCal PEAQ Isothermal Titration Calorimeter (Malvern Panalytical). A standard titration experiment consisted of the protein sample at 50 µM and the sugar ligand at 500 µM. The stirring was set at 750 rpm. The 280 µL sample of protein was injected with a priming aliquot of 0.2 µL of sugar ligand, followed by 19 successive injections of 2.0 µL at 120 seconds intervals. Integrated heat effects were determined by non-linear regression using a single-site binding model (Microcal PEAQ-ITC Analysis). The fitted isotherms yield the binding dissociation constant and other thermodynamic parameters calculated using the differential form of the Gibbs Free Energy equation ΔGd=-RTln(Kd) . The slope of the binding isotherm at the equivalence point was used to determine the dissociation constant Kd . The […] Ka is defined as Ka=1/Kd .

Setting [6] is: 300 mM NaCl pH 7.0, read-out: Kd.

Where “and” joins values, the source holds several entries; their conditions need not be identical. Equal entries are not always repeated. Where two headings read alike, the source gives them in different places.

T2 sequence (A0ABY1S743 entry or part of it): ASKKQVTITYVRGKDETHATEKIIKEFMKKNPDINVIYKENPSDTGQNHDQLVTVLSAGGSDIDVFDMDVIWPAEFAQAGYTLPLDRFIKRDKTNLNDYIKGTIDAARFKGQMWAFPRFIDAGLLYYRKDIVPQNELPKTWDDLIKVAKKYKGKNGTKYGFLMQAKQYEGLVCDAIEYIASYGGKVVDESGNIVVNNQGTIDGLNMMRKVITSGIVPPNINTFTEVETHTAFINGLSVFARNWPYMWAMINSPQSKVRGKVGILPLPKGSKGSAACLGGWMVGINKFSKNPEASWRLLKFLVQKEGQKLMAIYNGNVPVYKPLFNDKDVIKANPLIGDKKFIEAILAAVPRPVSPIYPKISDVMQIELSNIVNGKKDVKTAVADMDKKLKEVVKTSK
T1 sequence (A0ABY1S640 entry or part of it): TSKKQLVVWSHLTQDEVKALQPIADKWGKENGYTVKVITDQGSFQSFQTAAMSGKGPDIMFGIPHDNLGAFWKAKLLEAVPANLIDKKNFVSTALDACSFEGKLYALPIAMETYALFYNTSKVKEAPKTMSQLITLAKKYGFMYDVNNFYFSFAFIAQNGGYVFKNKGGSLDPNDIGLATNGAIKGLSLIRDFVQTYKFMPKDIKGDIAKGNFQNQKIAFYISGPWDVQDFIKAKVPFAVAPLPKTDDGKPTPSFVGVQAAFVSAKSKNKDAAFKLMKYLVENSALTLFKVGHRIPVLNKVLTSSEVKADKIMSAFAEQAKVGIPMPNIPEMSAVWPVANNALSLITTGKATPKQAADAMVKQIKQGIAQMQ

For `OC[C@H]1O[C@H](O[C@H]2[C@H](O)[C@@H](O)[C@@H](O[C@H]3[C@H](O)[C@@H](O)C(O)O[C@@H]3CO)O[C@@H]2CO)[C@H](O)[C@@H](O)[C@@H]1O` (stereo partly drawn) [MalG3, D-Maltotriose], the Tm in experiment [1] was determined as 101.47 °C. Also, the Tm in experiment [1] (listed as Maltotriose) stood at 101.5 °C. Moreover, the ΔTm in experiment [1] (Athe_2574) amounted to 8.72 °C. Moreover, in experiment [2], the Tm worked out at 108.42 °C and the ΔTm amounted to 6.63 °C. Further, in experiment [2] (listed as Maltotriose), the Tm amounted to 108.4 °C. Moreover, the “binding to Athe_2310_Mut1” value in experiment [3] is recorded as “can no longer bind”. In experiment [4], the TΔS is -4.85 kcal/mol, the ΔG is -7.21 kcal/mol, the ΔH is -2.36 ± 0.38 kcal/mol and the Kd amounted to 5.21 ± 2.98 µM. Further, in experiment [4], the Ka was determined as 192000 M⁻¹ and the “n (stoichiometry)” value is on record as 0.79 ± 0.06. Also, in experiment [5], the TΔS stood at 20.4 kcal/mol, the ΔG was -4.48 kcal/mol, the ΔH was -24.80 ± 2410 kcal/mol and the Ka was found to be 1900 M⁻¹. In experiment [5], the “n (stoichiometry)” value came to 1.57 ± 85.80. The Kd in experiment [5] (setting [6]) was 523 µM.

On to `OC[C@H]1O[C@H](O[C@H]2[C@H](O)[C@@H](O)[C@@H](O[C@H]3[C@H](O)[C@@H](O)[C@@H](O[C@H]4[C@H](O)[C@@H](O)C(O)O[C@@H]4CO)O[C@@H]3CO)O[C@@H]2CO)[C@H](O)[C@@H](O)[C@@H]1O` (stereo partly drawn) [MalG4, D-Maltotetraose], for which, in experiment [1], the Tm is 104.26 °C. Besides, the Tm in experiment [1] (listed as Maltotetraose) is 102.7 °C. Further, the Tm in experiment [2] was 103.36 °C. Besides, in experiment [2] (listed as Maltotetraose), the melting temperature (Tm) was 103.4 °C. In experiment [5], this compound had a TΔS of 0.664 kcal/mol, a ΔG of -9.24 kcal/mol, a ΔH of -9.90 ± 0.19 kcal/mol and a Ka of 5.848e+06 M⁻¹. The “n (stoichiometry)” value in experiment [5] amounted to 0.98 ± 0.01. Moreover, the Kd in experiment [5] (setting [6]) worked out at 0.17 ± 0.04 µM.

With `OC[C@H]1O[C@H](O[C@H]2[C@H](O)[C@@H](O)[C@@H](O[C@H]3[C@H](O)[C@@H](O)[C@@H](O[C@H]4[C@H](O)[C@@H](O)[C@@H](O[C@H]5[C@H](O)[C@@H](O)C(O)O[C@@H]5CO)O[C@@H]4CO)O[C@@H]3CO)O[C@@H]2CO)[C@H](O)[C@@H](O)[C@@H]1O` (stereo partly drawn) [MalG5, D-Maltopentaose], in experiment [1], the melting temperature (Tm) came to 104.93 °C. Further, the Tm in experiment [1] (listed as Maltopentaose) turned out to be 104.9 °C. The Tm in experiment [2] was 102.73 °C. Moreover, the Tm in experiment [2] (listed as Maltopentaose) turned out to be 102.7 °C. In experiment [5], the TΔS was -3.03 kcal/mol, the ΔG was -9.56 kcal/mol, the ΔH was -6.52 ± 0.07 kcal/mol and the Ka stood at 9.901e+06 M⁻¹. Moreover, the “n (stoichiometry)” value in experiment [5] came out at 0.90 ± 0.00. For the same compound, in experiment [5] (setting [6]), the Kd was 0.1 ± 0.01 µM.

Take `OC[C@H]1O[C@H](O[C@H]2[C@H](O)[C@@H](O)[C@@H](O[C@H]3[C@H](O)[C@@H](O)[C@@H](O[C@H]4[C@H](O)[C@@H](O)[C@@H](O[C@H]5[C@H](O)[C@@H](O)[C@@H](O[C@H]6[C@H](O)[C@@H](O)[C@@H](O[C@H]7[C@H](O)[C@@H](O)C(O)O[C@@H]7CO)O[C@@H]6CO)O[C@@H]5CO)O[C@@H]4CO)O[C@@H]3CO)O[C@@H]2CO)[C@H](O)[C@@H](O)[C@@H]1O` (stereo partly drawn) [MalG7, D-Maltoheptaose]: the Tm in experiment [1] came to 105.04 °C. Moreover, the Tm in experiment [1] (listed as Maltoheptaose) is 105.0 °C. Besides, the Tm in experiment [2] is 102.06 °C. Further, the Tm in experiment [2] (listed as Maltoheptaose) amounted to 102.1 °C. In experiment [5], this compound displayed a TΔS of -2.69 kcal/mol, a ΔG of -9.98 kcal/mol, a ΔH of -7.29 ± 0.04 kcal/mol and a Ka of 2.0492e+07 M⁻¹. For the same compound, in experiment [5], the “n (stoichiometry)” value is given as 0.82 ± 0.00. In experiment [5] (Kd, 300 mM NaCl pH 7.0), the Kd was 0.049 µM and 0.05 µM.

As for `OC[C@H]1O[C@H](O[C@H]2O[C@H](CO)[C@@H](O)[C@H](O)[C@H]2O)[C@H](O)[C@@H](O)[C@@H]1O` [Trehalose, D-Trehalose Dihydrate], the Tm in experiment [1] is 92.8 °C and 92.69 °C. In addition, the “binding to Athe_2574 judged from DSC melting profile” value in experiment [1] (Athe_2574, result in words) is given as “absence of binding”. Further, the ΔTm in experiment [1] (Athe_2574) is 0.1 °C. Moreover, in experiment [2], the Tm came to 109.02 °C and the ΔTm came to 7.23 °C. In experiment [4], the TΔS is -4.45 kcal/mol, the ΔG is -7.63 kcal/mol, the ΔH was -3.18 ± 0.14 kcal/mol and the Kd was determined as 2.59 ± 0.5 µM. In experiment [4], the Ka amounted to 386000 M⁻¹ and the “n (stoichiometry)” value came out at 0.96 ± 0.02.

As usually defined, the Tm is the temperature at which the thermal transition is half complete. As a reminder, the ΔTm is the change in melting temperature against a reference sample. As a reminder, the Kd is the constant that tells how readily two partners part at equilibrium.
